Patent US5608095A, “Alkyl-4-silyl-phenols and esters thereof as antiatherosclerotic agents” (Hoechst Marion Roussel, Inc., priority 1996, dated 1997)
Read-outs that look alike come from different tables or passages of the source.

Columns and labels:
Assay type in all cases: in vivo, male Sprague-Dawley rats
[1] = Clinical chemistries in serum of rats; details: for response vs control in vivo at 0.3 %: po, 96 h
Description: (§1) A typical experiment consisted of 4-6 groups of rats (N=5 per group) with 1 group being a control which received no MDL compound and the other groups being treated with 0.3% MDL compound. Some of the compounds were either repeated at 0.3% or evaluated again at the lower dose of 0.1%. Male Sprague-Dawley rats, 50-100 g, (Harlan Laboratories, Indianapolis, Ind.) were housed in groups of 5, fed ad libitum water and Purina Rodent chow (#5002) with or without MDL compound as a dietary admixture for 4 days. Dietary admixtures (0.3%) were made by mixing 1.2 grams of an MDL compound with 400 grams of Purina rodent chow (#5002). The MDL compound was mixed with approximately 50 grams of food using a mortar and pestle. This was added to the remainder of the food and mixed for 3 hours on a rotary mixer. In the morning of day 5, non-fasted rats were anesthetized with carbon dioxide, and blood was collected by cardiac puncture. Rats were sacrificed by cervical dislocation. Body weights and liver weights were recorded in grams. Food consumption was recorded as grams.cndot.day^-1.cndot.rat^-1. Deaths were recorded as mortality. Aliquots of fresh serum were used for clinical chemistries, thiobarbituric acid reactive substances (TBARS) and conjugated diene measurements. Aliquots of serum (~0.5mL) and whole livers were frozen at -20° C. for compound and metabolite concentration determination at a later time.
Blood was allowed to clot at room temperature for 30 minutes. Serum was obtained after centrifugation for 10 min at 4° C. at 3000 rpm in a Beckman J-6M/E centrifuge with a JS-4.2 rotor. Fresh serum was analyzed by a COBAS MIRA S autoanalyzer (Roche Diagnostics) using Roche diagnostic reagents for the following clinical chemistry measurements: alkaline phosphatase (ALP, kit #44553), alanine transaminase (ALT, kit #42375), aspartate aminotransferase (AST, kit #42381), total cholesterol (CHOL, kit #44334), triglyceride (TG, kit #44120), and glucose (GLU, kit #44558). ALP, ALT, and AST were calculated as units/L. Cholesterol, triglycerides, and glucose were calculated as mg/dL.

[2] = tested on: oxidation of serum lipids; assay: TBARS assay, rat serum; details: po, 96 h, read-out: TBARS, percent of control
Description: as §1
In this assay the oxidation of serum lipids is initiated with CuSO4, resulting in the formation of aldehydes, such as malondialdehyde (MDA). Upon incubation with thiobarbituric acid, the absorbance of the aldehydes can be detected at 530-540 nm. As stated in the previous example, TBARS values which are lower than control serum values indicate the relative ability of a test compound to inhibit the oxidation of lipids in a sample. TBARS were measured as follows: 100 μL of serum were mixed with 400 μL of a 5 mmol CuSO4 solution and incubated at 37° C. for 3 hr. The reactions were stopped by addition of 1.0 mL of 20% trichloroacetic acid. Then 1.0 mL of 0.67% thiobarbituric acid in 0.05N sodium hydroxide was added, mixed, and the samples incubated for 30 min at 90° C. Samples were centrifuged briefly to pellet undissolved material, and the supernatants were transferred to a 96-well microtiter plate. Absorbances were measured at 540 nm using a Biotek model EL311 microplate reader. The nmoles of MDA produced were calculated from a standard curve of 0 to 10 nmoles of MDA prepared from malonaldehyde bis(dimethylacetal). Serum samples from treated rats were compared to serum samples from control rats that received no MDL compound.

[3] = HPLC quantitation of compound and metabolite concentration in rat serum and liver; details: po, diet 0.3%, 4 days
Description: as §1
Serum and liver concentrations of parent compound and the metabolites, bisphenol and diphenoquinone, were determined by reverse phase HPLC using a Waters 990 Powerline system. Livers (1 gram samples) were homogenized with 5.0 mL PBS, pH 7.4, using a Polytron tissue homogenizer at setting 5 for 20-30 seconds. Serum or liver homogenates were extracted as follows: 100μL of either serum or homogenate were added to 2.0 mL diethyl ether:ethanol (3:1) while vortexing the tube. The sample tubes were capped and centrifuged for 10 min at 5° C. at 3500 rpm in a Beckman GPKR centrifuge with a GH 3.7 rotor. The supernatants were transferred to clean tubes and dried under N2. Samples were reconstituted with 200 μL of acetonitrile:hexane:0.1M ammonium acetate (90:6.5:3.5, by vol.). Then, 100 μL were injected onto a Waters Deltapak C18-300 Å column, and eluted with an 83% acetonitrile:17% water mobile phase at a flow rate of 1.5 mL/min. Absorbances at the wavelengths of 240, 254, and 420 nm were recorded. Compound concentrations were calculated from known quantities of authentic parent compounds after correction for recovery; the range of recovery from spiked samples was 40 to 100%. The lowest detectable limit for this class of compounds was ~0.5 μg/mL. […]. Concentrations were calculated as μg/mL of serum and μg/g of liver.

[4] = Animal parameters (food, body weight, liver weight, mortality) in rats; details: diet 0.3%, 4 days; for mortality at 96 h: in vivo, po, read-out: mortality (deaths per group); for mortality at 96 h / body wt., percent of control / lw/bw (liver weight/body weight), percent of control: rat
Description: as §1

[5] = Rattus norvegicus, read-out: CHOL (total cholesterol), percent of control
[6] = rat liver, read-out: Liver Parent = parent compound concentration
[7] = rat serum, read-out: Serum Parent = parent compound concentration

SMILES	response vs control in vivo at 0.3 % [1, 5] [%]	response vs control in vivo at 0.3 % ([1]; rat serum, diet 0.3%, 4 days, read-out: TRIG (triglycerides), percent of control) [%]	ALP (alkaline phosphatase), percent of control ([1]; rat serum, diet 0.3%, 4 days) [%]	ALT (alanine aminotransferase), percent of control ([1]; rat serum, diet 0.3%, 4 days) [%]	AST (aspartate aminotransferase), percent of control ([1]; rat serum, diet 0.3%, 4 days) [%]	GLUC (glucose), percent of control ([1]; rat serum, diet 0.3%, 4 days) [%]	response vs control in vivo at 0.3 % ([2]; rat serum, diet 0.3%, 4 days) [%]	concentration at 96 h [3, 6] [ng/g]	concentration at 96 h [3, 7] [ng/mL]	food (grams eaten per day per rat), percent of control [4] [%]	mortality at 96 h [4] [%]	body wt., percent of control [4] [%]	lw/bw (liver weight/body weight), percent of control [4] [%]	response vs control in vivo at 0.3 % ([1]; Rattus norvegicus, read-out: TRIG (triglycerides), percent of control) [%]	response vs control in vivo at 0.3 % ([2]; Rattus norvegicus) [%]
CC(C)(C)c1cc(SC[Si](C)(C)c2ccccc2)ccc1O [MDL 104,571, 2-t-Butyl-4-[(dimethylphenylsilyl)methylthio]phenol]	108	119	103	109	103	96	58	500	1200	108	0	97	123		
CC(C)(C)c1cc(OC[Si](C)(C)c2cccc(C(F)(F)F)c2)cc(C(C)(C)C)c1O [MDL 105,726, 2,6-Di-t-butyl-4-[(dimethyl-3-trifluoromethylphenylsilyl)methyloxy]phenol]	104		118	113	112	105		128000	17000	112	0	105	120	75	48
